Measurements reported in US9707229B2, “Compositions and methods for treating an infection” (CMPD LICENSING, LLC, priority 2015, dated 2017).

Experiments:
Assay type in all cases: cell-based
[1] = test system: Staphylococcus epidermidis; experiment: Expected efficacy of antibiotic agents; settings: Gram: pos
Proteus vulgaris = experiment: Expected efficacy of antibiotic agents; settings: Gram: neg
Enterococcus faecalis = experiment: Expected efficacy of antibiotic agents; settings: Gram: pos
Legionella pneumophila = settings: expected efficacy; Gram: neg
Brucella species = settings: expected efficacy; Gram: neg
Clostridium difficile = experiment: Expected efficacy of antibiotic agents; settings: Gram: anaer
Mycoplasma pneumoniae = experiment: Expected efficacy of antibiotic agents; settings: Gram: n/a
Providencia stuartii = experiment: Expected efficacy of antibiotic agents; settings: Gram: neg
Klebsiella pneumoniae = experiment: Expected efficacy of antibiotic agents; settings: Gram: neg
Enterobacter aerogenes = experiment: Expected efficacy of antibiotic agents; settings: Gram: neg
Bartonella bacilliformis = experiment: Expected efficacy of antibiotic agents; settings: Gram: neg
Streptococcus pneumoniae = experiment: Expected efficacy of antibiotic agents; settings: Gram: pos
Pseudomonas fluorescens = experiment: Expected efficacy of antibiotic agents; settings: Gram: neg
Providencia rettgeri = experiment: Expected efficacy of antibiotic agents; settings: Gram: neg
[2] = test system: Klebsiella (Calymmatobacterium) granulomatis; experiment: Expected efficacy of antibiotic agents; settings: Gram: neg
Haemophilus influenzae = experiment: Expected efficacy of antibiotic agents; settings: Gram: neg
Klebsiella oxytoca = experiment: Expected efficacy of antibiotic agents; settings: Gram: neg
Moraxella catarrhalis = experiment: Expected efficacy of antibiotic agents; settings: Gram: neg
Bordetella pertussis = experiment: Expected efficacy of antibiotic agents; settings: Gram: neg
Clostridium perfringens = settings: expected efficacy; Gram: anaer
Streptococcus agalactiae = experiment: Expected efficacy of antibiotic agents; settings: Gram: pos
[3] = test system: Methicillin resistant staph aureus (MRSA); experiment: Expected efficacy of antibiotic agents; settings: Gram: pos
[4] = test system: Acinetobacter calcoaceticus; experiment: Expected efficacy of antibiotic agents; settings: Gram: neg
Neisseria meningitidis = experiment: Expected efficacy of antibiotic agents; settings: Gram: neg
Rickettsiae = settings: expected efficacy; Gram: neg
Enterobacter cloacae = experiment: Expected efficacy of antibiotic agents; settings: Gram: neg
Serratia marcescens = experiment: Expected efficacy of antibiotic agents; settings: Gram: neg
Escherichia coli = experiment: Expected efficacy of antibiotic agents; settings: Gram: neg
Chlamydia pneumoniae = experiment: Expected efficacy of antibiotic agents; settings: Gram: n/a
Campylobacter jejuni = experiment: Expected efficacy of antibiotic agents; settings: Gram: neg
Enterococcus faecium = experiment: Expected efficacy of antibiotic agents; settings: Gram: pos
Enterobacter sakazakii = experiment: Expected efficacy of antibiotic agents; settings: Gram: neg
Vibrio cholerae = experiment: Expected efficacy of antibiotic agents; settings: Gram: neg
Bacteroides fragilis = experiment: Expected efficacy of antibiotic agents; settings: Gram: anaer
[5] = test system: Staphylococcus aureus (MSSA); experiment: Expected efficacy of antibiotic agents; settings: Gram: pos
Francisella tularensis = settings: expected efficacy; Gram: neg
Chlamydia trachomatis = experiment: Expected efficacy of antibiotic agents; settings: Gram: n/a
Chlamydia psittaci = settings: expected efficacy; Gram: n/a
Morganella morganii = experiment: Expected efficacy of antibiotic agents; settings: Gram: neg
Corynebacterium jeikeium = experiment: Expected efficacy of antibiotic agents; settings: Gram: pos
Citrobacter diversus = experiment: Expected efficacy of antibiotic agents; settings: Gram: neg
Acinetobacter baumannii = experiment: Expected efficacy of antibiotic agents; settings: Gram: neg
Citrobacter freundii = experiment: Expected efficacy of antibiotic agents; settings: Gram: neg
Streptococcus pyogenes = experiment: Expected efficacy of antibiotic agents; settings: Gram: pos
Pseudomonas aeruginosa = experiment: Expected efficacy of antibiotic agents; settings: Gram: neg
Proteus mirabilis = experiment: Expected efficacy of antibiotic agents; settings: Gram: neg
Acinetobacter lwoffii = experiment: Expected efficacy of antibiotic agents; settings: Gram: neg
Candida species = experiment: Expected efficacy of antifungal agents
Shigella flexneri = experiment: Expected efficacy of antibiotic agents; settings: Gram: neg
Salmonella typhi = experiment: Expected efficacy of antibiotic agents; settings: Gram: neg
Neisseria gonorrhoeae = experiment: Expected efficacy of antibiotic agents; settings: Gram: neg
Shigella dysenteriae = experiment: Expected efficacy of antibiotic agents; settings: Gram: neg
Shigella sonnei = experiment: Expected efficacy of antibiotic agents; settings: Gram: neg
[6] = test system: Haemophilus parainfluenzae; experiment: Expected efficacy of antibiotic agents; settings: Gram: neg
Yersinia pestis = settings: expected efficacy; Gram: neg
Shigella boydii = experiment: Expected efficacy of antibiotic agents; settings: Gram: neg

CC[C@H]1OC(=O)[C@H](C)[C@@H](O[C@H]2C[C@@](C)(OC)[C@@H](O)[C@H](C)O2)[C@H](C)[C@@H](O[C@@H]2O[C@H](C)C[C@H](N(C)C)[C@H]2O)[C@](C)(O)C[C@@H](C)CN(C)[C@H](C)[C@@H](O)[C@]1(C)O [Azithromycin]
efficacy against Staphylococcus epidermidis [1]: yes
efficacy against Proteus vulgaris (Proteus vulgaris): no
efficacy against Enterococcus faecalis (Enterococcus faecalis): no
efficacy against Legionella pneumophila (Legionella pneumophila): yes
efficacy against Brucella species (Brucella species): no
efficacy against Clostridium difficile (Clostridium difficile): no
efficacy against Mycoplasma pneumoniae (Mycoplasma pneumoniae): yes
efficacy against Providencia stuartii (Providencia stuartii): no
efficacy against Klebsiella pneumoniae (Klebsiella pneumoniae): no
efficacy against Enterobacter aerogenes (Enterobacter aerogenes): no
efficacy against Bartonella bacilliformis (Bartonella bacilliformis): yes
efficacy against Streptococcus pneumoniae (Streptococcus pneumoniae): yes
efficacy against Pseudomonas fluorescens (Pseudomonas fluorescens): no
efficacy against Providencia rettgeri (Providencia rettgeri): no
efficacy against Klebsiella (Calymmatobacterium) granulomatis [2]: no
efficacy against Haemophilus influenzae (Haemophilus influenzae): yes
efficacy against Klebsiella oxytoca (Klebsiella oxytoca): no
efficacy against Moraxella catarrhalis (Moraxella catarrhalis): yes
efficacy against Bordetella pertussis (Bordetella pertussis): yes
efficacy against Clostridium perfringens (Clostridium perfringens): no
efficacy against Streptococcus agalactiae (Streptococcus agalactiae): yes
efficacy against Methicillin resistant staph aureus (MRSA) [3]: no
efficacy against Acinetobacter calcoaceticus [4]: no
efficacy against Neisseria meningitidis (Neisseria meningitidis): yes
efficacy against Rickettsiae (Rickettsiae): yes
efficacy against Enterobacter cloacae (Enterobacter cloacae): no
efficacy against Serratia marcescens (Serratia marcescens): no
efficacy against Escherichia coli (Escherichia coli): no
efficacy against Chlamydia pneumoniae (Chlamydia pneumoniae): yes
efficacy against Campylobacter jejuni (Campylobacter jejuni): yes
efficacy against Enterococcus faecium (Enterococcus faecium): no
efficacy against Enterobacter sakazakii (Enterobacter sakazakii): no
efficacy against Vibrio cholerae (Vibrio cholerae): yes
efficacy against Bacteroides fragilis (Bacteroides fragilis): no
efficacy against Staphylococcus aureus (MSSA) [5]: yes
efficacy against Francisella tularensis (Francisella tularensis): no
efficacy against Chlamydia trachomatis (Chlamydia trachomatis): yes
efficacy against Chlamydia psittaci (Chlamydia psittaci): yes
efficacy against Morganella morganii (Morganella morganii): no
efficacy against Corynebacterium jeikeium (Corynebacterium jeikeium): no
efficacy against Citrobacter diversus (Citrobacter diversus): no
efficacy against Acinetobacter baumannii (Acinetobacter baumannii): no
efficacy against Citrobacter freundii (Citrobacter freundii): no
efficacy against Streptococcus pyogenes (Streptococcus pyogenes): yes
efficacy against Pseudomonas aeruginosa (Pseudomonas aeruginosa): no
efficacy against Proteus mirabilis (Proteus mirabilis): no
efficacy against Acinetobacter lwoffii (Acinetobacter lwoffii): no

C[C@@H]1[C@H](O)[C@@H](C)/C=C/C=C/CC/C=C/C=C/C=C/C=C/C(O[C@H]2O[C@H](C)[C@@H](O)[C@H](N)[C@@H]2O)CC2O[C@](O)(CC(O)C(O)CCC(O)CC(O)CC(O)CC(=O)O[C@H]1C)CC(O)C2C(=O)O (stereo partly shown) [Nystatin]
efficacy against Candida species (Candida species): yes

O=C(O)c1cn(C2CC2)c2cc(N3CCNCC3)c(F)cc2c1=O [Ciprofloxacin]
efficacy against Staphylococcus epidermidis [1]: yes
efficacy against Proteus vulgaris (Proteus vulgaris): yes
efficacy against Legionella pneumophila (Legionella pneumophila): yes
efficacy against Shigella flexneri (Shigella flexneri): yes
efficacy against Providencia stuartii (Providencia stuartii): yes
efficacy against Klebsiella pneumoniae (Klebsiella pneumoniae): yes
efficacy against Enterobacter aerogenes (Enterobacter aerogenes): yes
efficacy against Salmonella typhi (Salmonella typhi): yes
efficacy against Bartonella bacilliformis (Bartonella bacilliformis): yes
efficacy against Pseudomonas fluorescens (Pseudomonas fluorescens): yes
efficacy against Providencia rettgeri (Providencia rettgeri): yes
efficacy against Haemophilus influenzae (Haemophilus influenzae): yes
efficacy against Neisseria gonorrhoeae (Neisseria gonorrhoeae): yes
efficacy against Klebsiella oxytoca (Klebsiella oxytoca): yes
efficacy against Moraxella catarrhalis (Moraxella catarrhalis): yes
efficacy against Shigella dysenteriae (Shigella dysenteriae): yes
efficacy against Methicillin resistant staph aureus (MRSA) [3]: no
efficacy against Neisseria meningitidis (Neisseria meningitidis): yes
efficacy against Rickettsiae (Rickettsiae): yes
efficacy against Serratia marcescens (Serratia marcescens): yes
efficacy against Escherichia coli (Escherichia coli): yes
efficacy against Chlamydia pneumoniae (Chlamydia pneumoniae): yes
efficacy against Campylobacter jejuni (Campylobacter jejuni): yes
efficacy against Shigella sonnei (Shigella sonnei): yes
efficacy against Enterococcus faecium (Enterococcus faecium): no
efficacy against Vibrio cholerae (Vibrio cholerae): yes
efficacy against Bacteroides fragilis (Bacteroides fragilis): no
efficacy against Francisella tularensis (Francisella tularensis): yes
efficacy against Haemophilus parainfluenzae [6]: yes
efficacy against Morganella morganii (Morganella morganii): yes
efficacy against Corynebacterium jeikeium (Corynebacterium jeikeium): no
efficacy against Citrobacter diversus (Citrobacter diversus): yes
efficacy against Citrobacter freundii (Citrobacter freundii): yes
efficacy against Yersinia pestis (Yersinia pestis): yes
efficacy against Pseudomonas aeruginosa (Pseudomonas aeruginosa): yes
efficacy against Proteus mirabilis (Proteus mirabilis): yes
efficacy against Shigella boydii (Shigella boydii): yes
